Patent publication US8067458B2, “Alkoxyalkyl-substituted cyclic ketoenols” (Bayer Cropscience AG, priority 2006, dated 2011)
“And” between values parts separate entries of the source, which are not always exact repeats. Identical values can stand only once. Like-named read-outs stand apart in the source and are kept apart here.

Legend:
[1] = Penetration of active compounds through enzymatically isolated cuticles of apple leaves; conditions: spray liquor on isolated cuticles; 20° C., 60% rh; average of 5 to 6 measurements
[2] = Determination of the log P values by HPLC on a reversed phase column (C18); type: physicochemical; conditions: 43° C., EEC Directive 79/831 Annex V.A8
Procedure: The log P values reported in the table were determined in accordance with EEC Directive 79/831 Annex V.A8 by means of HPLC (high performance liquid chromatography) on a reversed phase column (C18). Temperature: 43° C. […] Calibration was carried out with unbranched alkan-2-ones (having 3 to 16 carbon atoms) whose log P values are known (log P values determined on the basis of the retention times by means of linear interpolation between two successive alkanones).

Spring barley = type: in vivo; conditions: post-emergence
Spring wheat = type: in vivo; conditions: post-emergence
[3] = test system: caterpillars of the army worm (Spodoptera frugiperda); assay: Spodoptera frugiperda test (spray treatment); type: in vivo; conditions: 500 g/ha, maize leaf discs
Procedure: Solvent: 78 parts by weight of acetone • • 1.5 parts by weight of dimethylformamide Emulsifier: 0.5 part by weight of alkylaryl polyglycol ether A suitable preparation of active compound is prepared by mixing 1 part by weight of active compound with the stated amounts of solvent and emulsifier and diluting the concentrate with emulsifier-containing water to the desired concentration. Leaf discs of maize (Zea mays) are sprayed with a preparation of active compound at the desired concentration and after they have dried are populated with caterpillars of the army worm (Spodoptera frugiperda).

Maize - Arsenal = assay: Greenhouse container trials with maize, safener 1 day prior to herbicide application, pre-emergence; type: in vivo; conditions: 28 days after application
Procedure: (§1) Seeds of monocotyledonous and dicotyledonous weed plants and crop plants are placed in sandy loam soil in wood fibre pots or in plastic pots and are covered with earth. The pots are easily fitted and then the soil surface is treated with the test compounds, formulated as wettable powders (WP) or liquids (EC) in various dosages, with a water application rate of 300 l/ha (converted). […] If the testing is also to look at whether safeners can improve the tolerance of the crop plants for test substances, the following options are used for the application of the safener: • seeds of the crop plants are dressed with the safener substance prior to sowing (the amount of safener is stated as a percentage, based on the seed weight) • crop plants are sprayed with the safener, with a defined application rate per hectare, prior to application of the test substances (typically 1 day before the test substances are applied) • the safener is applied together with the test substance in the form of a tank mix (the amount of safener is reported in g/ha or as a proportion relative to the herbicide). By comparing the effect of test substances on crop plants which have been treated with safener and without safener it is possible to assess the effect of the safener substance.

Maize - CECILIA = assay: as above; type: in vivo; conditions: 50 g a.i./ha, 28 days after application
Procedure: as §1

[4] = 10 days after application, 12.5 g a.i./ha
[5] = 10 days after application, 25 g a.i./ha
[6] = 10 days after application, 50 g a.i./ha
[7] = 10 days after application, 100 g a.i./ha
[8] = 28 days after application, 50 g a.i./ha
[9] = 28 days after application, 100 g a.i./ha
[10] = 28 days after application, 25 g a.i./ha
[11] = 25 g a.i./ha, 10 days after application
[12] = 50 g a.i./ha, 10 days after application

N.N.O=S(=O)(O)O [ammonium sulphate]
penetration through apple leaf cuticles (effect of additive, in words) [1]: significantly improves the penetration

COCCC(C)(NC(=O)Cc1c(C)cc(C)cc1C)C(=O)OC (stereo not shown) [II-29]
logP [2]: logP 2.86

CCc1cc(C)cc(C)c1C1=C(OC(=O)COC)C(C)(COC)NC1=O (racemic) [I-b-11]
Spring barley observed (%) (Spring barley; [4]): 10%
Spring barley observed (%) (Spring barley; [5]): 15%
Spring barley observed (%) (Spring barley; [6]): 50%
Spring barley observed (%) (Spring barley; [7]): 70%
Spring barley observed (%) (Spring barley; [8]): 25%
Spring barley observed (%) (Spring barley; [9]): 55%
Spring wheat observed (%) (Spring wheat; [5]): 10%
Spring wheat observed (%) (Spring wheat; [6]): 60%
Spring wheat observed (%) (Spring wheat; [10]): 10%
Spring wheat observed (%) (Spring wheat; [8]): 50%

CCc1cc(C)cc(C)c1CC(=O)NC(C)(CCOC)C(=O)OC (stereo not shown) [II-28]
logP [2]: logP 3.19

COCC(C)(NC(=O)Cc1c(C2CC2)cc(C)cc1C1CC1)C(=O)OC (stereo not shown) [II-27]
logP [2]: logP 3.19

CCc1cc(C)cc(Br)c1C1=C(O)C(C)(COC)NC1=O (racemic) [I-a-6]
Spring wheat observed (%) (Spring wheat; [8]): 20%
Spring wheat observed (%) (Spring wheat; [9]): 30%

CCc1cc(C)cc(OC)c1C1=C(OC(=O)C(C)C)C(C)(COC)NC1=O (racemic) [I-b-9]
Spring barley observed (%) (Spring barley; [5]): 25%
Spring barley observed (%) (Spring barley; [6]): 75%
Spring barley observed (%) (Spring barley; [10]): 25%
Spring barley observed (%) (Spring barley; [8]): 70%
Spring wheat observed (%) (Spring wheat; [4]): 15%
Spring wheat observed (%) (Spring wheat; [5]): 60%
Spring wheat observed (%) (Spring wheat; [10]): 60%
Spring wheat observed (%) (Spring wheat; [8]): 85%

CCc1cc(C)cc(Br)c1CC(=O)NC(C)(CCOC)C(=O)OC (stereo not shown) [II-35]
logP [2]: logP 3.39

CCc1cc(Cl)cc(OC)c1C1=C(O)C(C)(COC)NC1=O (racemic) [I-a-10]
Spring wheat observed (%) (Spring wheat; 28 days after application, 12.5 g a.i./ha): 5%
Spring wheat observed (%) (Spring wheat; [10]): 15%
Spring wheat observed (%) (Spring wheat; [8]): 25%

COCC1(C)NC(=O)C(c2c(C)cc(C)cc2Cl)=C1O (racemic) [I-a-12]
activity (effect in %, caterpillars killed) [3]: ≥ 80%

CCc1cc(C)cc(C2CC2)c1CC(=O)NC(C)(COC)C(=O)OC (racemic) [II-20]
logP [2]: oil logP 3.13

CCc1cc(Cl)cc(OC)c1CC(=O)NC(C)(CCOC)C(=O)OC (stereo not shown) [II-33]
logP [2]: logP 3.21

CCOc1cc(Cl)cc(CC)c1CC(=O)NC(C)(CCOC)C(=O)OC (stereo not shown) [II-34]
logP [2]: logP 3.64

CCc1cc(C)cc(C)c1C1=C(OC(=O)C(C)C)C(C)(COC)NC1=O (racemic) [I-b-4]
Spring barley observed (%) (Spring barley; [11]): 30%
Spring barley observed (%) (Spring barley; [12]): 40%
Spring barley observed (%) (Spring barley; [6]): 25%
Spring barley observed (%) (Spring barley; [7]): 65%
Spring wheat observed (%) (Spring wheat; 12.5 g a.i./ha, 10 days after application): 30%
Spring wheat observed (%) (Spring wheat; [11]): 50%
Spring wheat observed (%) (Spring wheat; [12]): 70%
Spring wheat observed (%) (Spring wheat; [5]): 10%
Spring wheat observed (%) (Spring wheat; [6]): 50%
Spring wheat observed (%) (Spring wheat; [7]): 75%
Spring wheat observed (%) (Spring wheat; [10]): 10%
Spring wheat observed (%) (Spring wheat; 28 days after application, 50 g a.i./ha, listed as Ex. I-b-4): 15% and 5%
Spring wheat observed (%) (Spring wheat; [9]): 30%

CCc1cc(Cl)cc(OC)c1C1=C(OC(=O)C(C)C)C(C)(COC)NC1=O (racemic) [I-b-10]
Maize - Arsenal observed (%) (Maize - Arsenal; 12.5 g a.i./ha): 5%
Maize - Arsenal observed (%) (Maize - Arsenal; 25 g a.i./ha): 15%
Maize - Arsenal observed (%) (Maize - Arsenal; 50 g a.i./ha): 25%
Maize - CECILIA observed (%) (Maize - CECILIA): 15%
